These results are taken from patent US7820703B2, “Lysophosphatidic acid receptor selective antagonists” (University of Virginia Patent Foundation, priority 2004, dated 2010).

Entries after “also recorded” stand apart in the source; their conditions may differ.

Common to all, as to type: biochemical
One experiment has as its target T1, LPA1 receptor (Mus musculus, UniProt P61793).
T1 construct: expressed in transfected cells; host or cells: HEK293T cells (membranes)
Put plainly: antagonism of LPA-evoked GTP[γ35S] binding at LPA1. As to conditions: for antagonist activity at LPA1, in words: GTP[γ35S] binding; for IC50: antagonism of LPA-evoked GTP[γ35S] binding; for Ki: determined by Schild regression. As to the method:
(§1) The appropriate receptor plasmid DNA (encoding mouse LPA1, human LPA2 or human LPA3) was mixed with equal amounts of expression plasmids (pcDNA3) encoding a mutated (C351F) rat Gi2a, cow β1, and γ2 proteins and these DNAs were used to transfect monolayers of HEK293T cells (where ‘T’ indicates expression of the SV-40 virus large T antigen) using the calcium phosphate precipitate method. After about 60 hours, cells were harvested, membranes were prepared, aliquoted and stored at −70° C. until use.
(§2) The GTP[35 γS] assay was performed as described by us previously. Membranes containing 5 ug of protein were incubated in 0.1 ml GTP-binding buffer (in mM: HEPES 50, NaCl 100, MgCl2 10, pH7.5) containing […], […], 0.1 nM GTP[35 γS] (1200 Ci/mmol), and indicated lipid(s) for 30 minutes at 30° C. Samples were analyzed for membrane-bound radionuclide using a Brandel Cell Harvester (Gaithersburg, Md.).
(§3) The X-intercept of the linear transformation is equal to the inverse log of the KI.
(§4) All compounds were characterized by ^1H and ^13C NMR, mass spectroscopy and, in certain cases, elemental analysis. A GTP[γ35S] binding assay was adapted to assess in vitro activity.
(§5) All compounds were characterized by ^1H and ^13C NMR, mass spectroscopy and, in most cases, C, H, N analyses. A membrane-based GTP[γ^35S] binding assay was adapted to assess in vitro activity at the LPA1 and LPA3 receptors.
Background: GTPγS resists hydrolysis and so accumulates on activated G proteins.

Experiment [1] concerns the target T2, human LPA3 (Homo sapiens, UniProt Q9UBY5).
T2 sequence (Q9UBY5 1-353): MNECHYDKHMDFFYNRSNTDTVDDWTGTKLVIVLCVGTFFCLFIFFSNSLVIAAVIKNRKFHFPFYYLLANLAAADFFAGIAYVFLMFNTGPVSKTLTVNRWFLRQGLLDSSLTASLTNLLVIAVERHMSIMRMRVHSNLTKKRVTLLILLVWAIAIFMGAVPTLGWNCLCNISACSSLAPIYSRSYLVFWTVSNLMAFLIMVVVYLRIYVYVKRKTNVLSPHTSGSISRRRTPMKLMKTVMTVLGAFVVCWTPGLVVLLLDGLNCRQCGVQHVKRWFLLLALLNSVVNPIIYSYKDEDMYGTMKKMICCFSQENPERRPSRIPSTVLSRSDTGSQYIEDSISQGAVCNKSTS
Kind of experiment: antagonism of LPA-evoked GTP[γ35S] binding at LPA3. Also noted: expressed in transfected cells; host or cells: HEK293T cells (membranes). To be noted: for IC50: antagonism of LPA-evoked GTP[γ35S] binding; for antagonist activity at LPA3, in words: GTP[γ35S] binding. As to the method: as §1, §2, §3, §4, §5

For a further experiment, the target named is mouse LPA1 (Mus musculus, UniProt P61793). Put plainly: GTP[γ35S] binding assay, agonist activity at LPA1. Set-up: expressed in transfected cells; host or cells: HEK293T cells (membranes). To be noted: for LPA1 Emax: LPA = 100; for EC50: transfected HEK293T cell membranes. As to the method: as §1
Chain of mouse LPA1 (P61793 whole entry): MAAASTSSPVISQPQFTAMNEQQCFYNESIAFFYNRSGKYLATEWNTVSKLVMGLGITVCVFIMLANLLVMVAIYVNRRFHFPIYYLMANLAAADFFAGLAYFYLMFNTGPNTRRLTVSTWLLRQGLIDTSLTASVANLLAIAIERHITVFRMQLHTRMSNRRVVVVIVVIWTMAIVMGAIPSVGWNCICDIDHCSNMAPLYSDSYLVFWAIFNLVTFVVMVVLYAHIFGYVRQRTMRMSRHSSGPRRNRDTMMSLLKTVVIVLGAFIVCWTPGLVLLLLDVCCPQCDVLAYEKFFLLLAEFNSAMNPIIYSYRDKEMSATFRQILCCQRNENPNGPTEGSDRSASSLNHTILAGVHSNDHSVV
as §2, with “Md.). The C351F mutation renders the Gi2α protein resistant to inactivation by pertussis toxin or the alkylating agent N-ethylmaleimide; however in practice background binding was sufficiently low to obviate these maneuvers.” for “Md.).”
(§6) This assay isolates each recombinant LPA receptor and allows analysis of all three receptors using the same system.
(§7) Membranes prepared from these cells are used to measure GTPγ[^35S] binding as a function of test compound concentration. The resulting dose-response curves provide relative potency (EC50) and efficacy (Emax) for the test compounds.

A further experiment has as its target human LPA2 (Homo sapiens, UniProt Q9HBW0). Kind of experiment: GTP[γ35S] binding assay, agonist activity at LPA2. As to conditions: for EC50: transfected HEK293T cell membranes; for LPA2 Emax: LPA = 100. Also noted: expressed in transfected cells; host or cells: HEK293T cells (membranes). As to the method:
as §1, §2, §7

For experiment [2], the target named is T2, human LPA3. Kind of experiment: GTP[γ35S] binding assay, agonist activity at LPA3. Set-up: expressed in transfected cells; host or cells: HEK293T cells (membranes). To be noted: for LPA3 Emax: LPA = 100; for EC50: transfected HEK293T cell membranes. As to the method: as §1
as §2, with “Md.). The C351F mutation renders the Gi2α protein resistant to inactivation by pertussis toxin or the alkylating agent N-ethylmaleimide; however in practice background binding was sufficiently low to obviate these maneuvers.” for “Md.).”
as §6, §7

For a further experiment, the target named is T3, LPP3 (PAP2b) (Homo sapiens, UniProt O14495).
T3 sequence (O14495 1-311): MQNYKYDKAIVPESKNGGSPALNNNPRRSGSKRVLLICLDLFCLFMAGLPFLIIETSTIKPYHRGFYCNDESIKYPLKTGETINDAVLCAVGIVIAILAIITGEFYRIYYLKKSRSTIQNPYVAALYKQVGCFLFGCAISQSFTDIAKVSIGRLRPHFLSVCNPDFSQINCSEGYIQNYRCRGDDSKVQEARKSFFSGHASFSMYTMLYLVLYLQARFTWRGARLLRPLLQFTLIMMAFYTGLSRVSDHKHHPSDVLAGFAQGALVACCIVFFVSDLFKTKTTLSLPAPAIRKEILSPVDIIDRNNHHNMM
Put plainly: LPP inhibition, competition with [32P]LPA, LPP3. To be noted: competition with 50 nM [32P]LPA. As to the method: NOHPP was also tested for activity at the three cloned LPPs. Although the phosphonate head group eliminates the possibility of NOHPP acting as a substrate, it is possible that the compound could be a competitive inhibitor.

Chain of human LPA2 (Q9HBW0 whole entry): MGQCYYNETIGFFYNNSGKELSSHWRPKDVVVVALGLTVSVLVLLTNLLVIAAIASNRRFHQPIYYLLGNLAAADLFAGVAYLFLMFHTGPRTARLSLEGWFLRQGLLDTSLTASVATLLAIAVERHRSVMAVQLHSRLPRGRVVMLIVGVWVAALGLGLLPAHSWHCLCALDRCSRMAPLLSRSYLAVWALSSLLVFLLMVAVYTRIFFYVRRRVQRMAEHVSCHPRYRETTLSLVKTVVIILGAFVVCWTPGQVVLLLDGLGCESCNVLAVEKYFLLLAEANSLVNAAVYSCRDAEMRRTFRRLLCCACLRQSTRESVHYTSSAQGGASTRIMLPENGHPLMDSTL
T1 sequence (P61793 whole entry): as the sequence (P61793 whole entry) above

As to `CCCCCC=CCC=CCCCCCCCC(=O)NC(COP(=O)(O)O)Cc1ccc(OCc2ccccc2)cc1` (stereo not shown) [Compound 29e], the “antagonist activity at LPA1, in words” value on LPA1 receptor is “potency comparable to lead compound 26”.

Take `CCCCCCCC/C=C\CCCCCCCC(=O)N[C@@H](COP(=O)(O)O)Cc1ccc(OCc2cc(OCCC)ccn2)cc1` [Compound 57j]: on LPA1 receptor, the IC50 worked out at 141 nM and the Ki was found to be 64 nM.

As for `CCCCCCCC/C=C\CCCCCCCC(=O)N[C@H](COP(=O)(O)O)Cc1ccc(OCc2cccc(OC)n2)cc1` [Compound 57f], the IC50 was more than 10000 nM on LPA1 receptor and 1090 nM on human LPA3 [1].

Take `CCCCCCCC/C=C\CCCCCCCC(=O)N[C@@H](COP(=O)(O)O)Cc1ccc(OCc2ccc3ccccc3n2)cc1` [Compound 57n]: the IC50 on LPA1 receptor stood at 1430 nM; at human LPA3 [1] it was 533 nM.

As for `CCCCCCCC/C=C\CCCCCCCC(=O)N[C@H](CO)COP(=O)(O)O` [VPC31143], the “agonist activity at LPA1, in words” value at mouse LPA1 is on record as “more potent than 1-oleoyl LPA”.

“1-acyl, 2-hydroxyl-sn-glycerol-3-phosphate [LPA, reference compound]” came in with an EC50 on human LPA2 of 6.8 nM. Further, at human LPA3 [2], the “LPA3 Emax” value was 100 and the midpoint of the response, the EC50, lay at 262 nM.

Regarding `CCCCCCCC/C=C\CCCCCCCC(=O)N[C@H](CN)COP(=O)(O)O` [VPC12178], on mouse LPA1, the “agonist activity at LPA1, in words” value is “more potent than 1-oleoyl LPA”; the “LPA1 Emax” value is listed as 98.7; the EC50 was determined as 4.9 nM. On human LPA2, the “LPA2 Emax” value was found to be 103.2 and a half-maximal response (EC50) required 50.3 nM. At human LPA3 [2], the “LPA3 Emax” value came out at 102.9 and the EC50 is 684 nM.

For the compound `CCCCCCCC/C=C\CCCCCCCC(=O)N[C@H](COP(=O)(O)O)Cc1ccc(OCc2cc(OC)c3ccccc3n2)cc1` [Compound 57p], the IC50 on LPA1 receptor is more than 10000 nM; on human LPA3 [1], 2600 nM.

Consider `CCCCCCCC/C=C\CCCCCCCC(=O)N[C@@H](CN)COP(=O)(O)O` [Compound 12048], for which, on mouse LPA1, the “LPA1 Emax” value amounted to 9.4 and the EC50 is more than 5000 nM. Also, at human LPA2, the “LPA2 Emax” value is 36.4 and the EC50 is more than 5000 nM. For the same compound, at human LPA3 [2], the “LPA3 Emax” value was determined as 3.8 and the EC50 is more than 5000 nM.

For the compound `CCCCCCCC/C=C\CCCCCCCC(=O)N[C@@H](COP(=O)(O)O)Cc1ccc(OCc2ncc(C)c(OC)c2C)cc1` [Compound 57l], the results for the IC50 at LPA1 receptor and at human LPA3 [1] were 62 nM and 39 nM, respectively. Moreover, the Ki at LPA1 receptor came to 28 nM.

For `CCCCCCCC/C=C\CCCCCCCC(=O)N[C@H](COP(=O)(O)O)Cc1ccc(OCc2ncc(C)c(OC)c2C)cc1` [Compound 57m], the values for the IC50 on LPA1 receptor and on human LPA3 [1] were 3690 nM and 561 nM, respectively.

As to `CCCCCCCC/C=C\CCCCCCCC(=O)N[C@H](COP(=O)(O)O)C(=O)c1ccc(OCc2ccccc2)cc1` [Compound 39b], at LPA1 receptor, the “antagonist activity at LPA1, in words” value was “retains potency comparable to 26” and the IC50 was found to be 2490 nM. In addition, at human LPA3 [1], the IC50 was more than 10000 nM.

On to `CCCCCCCC/C=C\CCCCCCCC(=O)N[C@H](CC)COP(=O)(O)O` [VPC12109], for which, at mouse LPA1, the “LPA1 Emax” value was 66.8 and a half-maximal effect (EC50) was put at 35.8 nM. Moreover, at human LPA2, the “LPA2 Emax” value is 92.6 and it took 162 nM to reach a half-maximal effect (EC50). Also, at human LPA3 [2], the “LPA3 Emax” value stood at 83.5 and the EC50 amounted to 1080 nM.

Regarding `CCCCCCCCC=CCCCCCCCC(=O)NC(COP(=O)(O)O)Cc1ccc(OCc2cc(OCC(F)(F)F)ccn2)cc1` (stereo not shown) [Compound 57i], on LPA1 receptor, the “antagonist activity at LPA1, in words” value is on record as “equipotent to 26a”; the IC50 came out at 84 nM; the affinity corresponds to a Ki of 19 nM. Moreover, on human LPA3 [1], the “antagonist activity at LPA3, in words” value is “three-fold more potent” and the IC50 is 48 nM.

As for `CCCCCCCC/C=C\CCCCCCCC(=O)N[C@H](C)COP(=O)(O)O` [VPC12086], at mouse LPA1, the “agonist activity at LPA1, in words” value is “more potent and efficacious than LPA; also recorded: more potent than 1-oleoyl LPA”; the “LPA1 Emax” value came out at 107.6; the response was half-maximal at 3.4 nM (EC50). In addition, on human LPA2, the “LPA2 Emax” value was 95.2 and the EC50 stood at 18.3 nM. Further, at human LPA3 [2], the “LPA3 Emax” value is on record as 93.4 and the EC50 came to 113 nM.

Take `CCCCCCCC/C=C\CCCCCCCC(=O)N[C@@H](COP(=O)(O)O)Cc1ccc(OCc2cc(OCC)ccn2)cc1` [Compound 57h]: at LPA1 receptor, the IC50 came out at 143 nM and the Ki came out at 26 nM. The compound also had an IC50 at human LPA3 [1] of 39 nM.

For the compound `CCCCCCCCC=CCCCCCCCC(=O)NC(COP(=O)(O)O)Cc1ccc(OC(=O)c2ccc(N)cc2)cc1` (stereo not shown) [Compound 35p], the “antagonist activity at LPA1, in words” value at LPA1 receptor is “devoid of activity”. Further, at human LPA3 [1], the “antagonist activity at LPA3, in words” value is “devoid of activity”.

As for `CCCCCCCC/C=C\CCCCCCCC(=O)N[C@@H](C)COP(=O)(O)O` [VPC12101], at mouse LPA1, the “LPA1 Emax” value was found to be 48.1 and the EC50 was 2900 nM. Also, on human LPA2, the “LPA2 Emax” value stood at 6.9 and the EC50 is more than 5000 nM. Moreover, at human LPA3 [2], the “LPA3 Emax” value turned out to be 9.7 and the EC50 was more than 5000 nM.

Turning to `CCCCCCCC/C=C\CCCCCCCC(=O)N[C@@H](CCP(=O)(O)O)Cc1ccc(OCc2ncc(C)c(OC)c2C)cc1` [Compound 63d], on LPA1 receptor, the “antagonist activity at LPA1, in words” value is listed as “no antagonism” and the concentration for half-maximal inhibition (IC50) is more than 10000 nM. On human LPA3 [1], the “antagonist activity at LPA3, in words” value is recorded as “improved potency over lead compound 26a” and the IC50 amounted to 150 nM.

On to `CCCCCCCC/C=C\CCCCCCCC(=O)NCCC(=O)P(=O)(O)O` [VPC12060], for which, at LPP3 (PAP2b), the “inhibition of LPP3” value is listed as “markedly better at the PAP2b (LPP3) than PAP2a (LPP1)”.

In the case of `CCCCCCCC/C=C\CCCCCCCC(=O)N[C@@H](COP(=O)(O)O)C(=O)c1ccc(OCc2ccccc2)cc1` [Compound 39a], the IC50 on LPA1 receptor and on human LPA3 [1] was more than 10000 nM in each case.

The term IC50 denotes the concentration at which inhibition is half-maximal. A lower IC50 goes with higher potency. A word on the Ki: it is the dissociation constant of the complex between target and ligand, obtained from inhibition or displacement. As usually defined, the EC50 is the midpoint of the concentration-response curve. A low value points to a more potent agent.
